For data set [1], the system named is L. (L.) infantum chagasi promastigotes. As to the kind of experiment: Transmission electron microscopy of treated promastigotes. Format: cell-based, Leishmania (L.) infantum chagasi. Conditions: 10 μM, 72 h. An excerpt: The cells were washed with Milli Q water, dehydrated in increasing concentration of acetone and embedded in Epon (1: 1) (PolyBed 812). The ultrathin sections were obtained, contrasted with 5% uranyl acetate and lead citrate and observed under a Joel 1200 electron microscope.

Data set [2] concerns intracellular amastigotes of L. (L.) infantum chagasi. The experiment in a line: Replication of intracellular amastigotes in infected peritoneal macrophages (phagocytic index). Format: cell-based, Leishmania (L.) infantum chagasi. On the procedure:
[…] […] The amastigote growth was assessed 24 h after the last drug addition, on 200 cells in Giemsa stained coverslips and expressed as phagocytic index = percent of infected macrophages x average number of intracellular amastigotes. […] All experiments with mice were reviewed and approved by the Animal Care and Use Committee of the Instituto de Biofísica Carlos Chagas Fo.-UFRJ (CAUAP-CONCEA, Brazil, IMPPG-016) and were performed according to the guidelines of the National Institutes of Health, USA. We made all efforts in order to minimize animal suffering.

Data set [3] can be described thus: Macrophage viability and cytotoxicity (Trypan Blue). Conditions: female, BALB/c, mouse, peritoneal macrophages. On the procedure: Alternatively, the immucillins were added at 0, 24 and 48 h and viability assessed after 72h. […] The amastigote growth was assessed 24 h after the last drug addition, on 200 cells in Giemsa stained coverslips and expressed as phagocytic index = percent of infected macrophages x average number of intracellular amastigotes. […] All experiments with mice were reviewed and approved by the Animal Care and Use Committee of the Instituto de Biofísica Carlos Chagas Fo.-UFRJ (CAUAP-CONCEA, Brazil, IMPPG-016) and were performed according to the guidelines of the National Institutes of Health, USA. We made all efforts in order to minimize animal suffering.

Data set [4] has as its target T1, Nucleoside hydrolase NH36 (Leishmania donovani, UniProt Q8WQX2).
T1 sequence (Q8WQX2 1-314): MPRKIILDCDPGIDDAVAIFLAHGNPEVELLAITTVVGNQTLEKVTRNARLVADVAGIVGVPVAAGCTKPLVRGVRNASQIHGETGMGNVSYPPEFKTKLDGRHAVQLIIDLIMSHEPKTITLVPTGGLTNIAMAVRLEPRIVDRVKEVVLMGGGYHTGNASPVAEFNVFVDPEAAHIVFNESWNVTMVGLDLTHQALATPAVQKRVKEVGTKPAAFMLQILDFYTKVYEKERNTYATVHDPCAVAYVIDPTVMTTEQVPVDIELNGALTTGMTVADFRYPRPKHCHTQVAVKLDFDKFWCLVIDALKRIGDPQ
The experiment in a line: Ki determination: inhibition of NH36 activity by immucillins. Format: biochemical, Leishmania (L.) donovani. The settings on record: 10 mM inosine as substrate, 0.5 nM NH36, pH 7.4, room temperature. On the procedure: BL21DE3 E.coli were transformed with the synthetic plasmid pET 28b encoding the gene of NH36 of Leishmania (L.) donovani (EMBL, Genbank and DDJB data bases, access number AY007193) with a His6tag at the C-terminal. Expression was induced with 0.5 mM IPTG and overnight incubation at 20°C. Purification of NH36 was performed on a column of Ni-NTA Superflow resin (Qiagen, USA) eluted by a stepwise imidazole gradient and monitored by SDS-polyacrylamide gel electrophoresis and protein assay. The extinction coefficient of NH36 is 21.437 mM^-1 cm^-1 at 280 nm, as calculated with the ProtParam program from ExPASy, and was used to estimate protein concentration (http://ca.expasy.org/seqanalref/). The yield of NH36 after purification was 11.87 mg per Liter of bacterial growth culture. Non-specific His-proteins with weak interactions were eluted with 50–100 mM imidazole (S1 Fig). The purified NH36 started to elute with 150 mM imidazole. We used 250 mM of imidazol in elution buffer for purification of NH36.
The reaction mixtures contained 10 mM inosine as substrate, 50 mM Hepes (pH 7.4), 100 mM KCl, 5 mM DTT and 1 unit XOD. The hydrolysis of inosine to hypoxanthine and ribose was followed by continuous reading of optical absorbance at 293 nm, using variable concentrations of inhibitors in a CARY 300UV-visible spectrophotometer. Controls without enzyme and without inhibitors were included in all inhibition assays. The inhibition constant for each immucillin was obtained, using GraFit 5 (Erithacus Software), by fitting initial rates with variable inhibitor concentrations to the equation (vi/v0 = [S] / Km + [S] + Km[I] / Ki), where v i is the initial rate in the presence of the inhibitor, v 0 is the initial rate in the absence of the inhibitor, K m is the Michaelis constant for inosine, [S] and [I] are inosine and inhibitor concentrations, respectively, and Ki is the inhibition constant.

In data set [5] the test system is L. (L.) infantum chagasi promastigotes. As to the kind of experiment: Promastigote multiplication in chemically defined RPMI medium. Format: cell-based, Leishmania (L.) infantum chagasi. The protocol: Stock solutions (20 mM) of immucillins IA […] prepared using Milli-Q purified water. Log phase promastigotes of L. (L.) infantum chagasi and L. […] Promastigotes were recorded in a Neubauer chamber after 24, 48, 72 and 96 hours of incubation at 26°C. […] We also assayed the possibility of reversing the inhibitory effect of IA in RPMI medium by the addition of adenosine to the culture medium. The concentration of adenosine in Schneider s insect serum supplemented medium was assessed by HPLC using a C-18 reverse-phase column as described.

The test system is the same in data set [6]. As to the kind of experiment: In vitro growth of promastigotes in FBS supplemented Schneider's insect medium. The settings on record: Leishmania infantum. Format: cell-based, Leishmania (L.) infantum chagasi. The text has this: The strain of Leishmania (L.) infantum chagasi MHOM/BR/1974/PP75 was obtained from the Leishmania Type Culture Collection (Fundacão Oswaldo Cruz, Rio de Janeiro, RJ, Brazil) and the strain of Leishmania (L.) amazonensis (MHOM/BR/1975/Josefa) was kindly given by Professor Rosâ[…] from Universidade Federal do Rio de Janeiro. Promastigotes were maintained by weekly transfers in screw-capped glass tubes containing Schneider's insect medium (Sigma Aldrich, MO, USA), pH 7.0, supplemented with 10% Fetal Bovine Serum (FBS) at 26°C. […] Log phase promastigotes of L. (L.) infantum chagasi and L. […] Promastigotes were recorded in a Neubauer chamber after 24, 48, 72 and 96 hours of incubation at 26°C. […] The concentration of adenosine in Schneider s insect serum supplemented medium was assessed by HPLC using a C-18 reverse-phase column as described.

From article PMC4409337, “Immucillins Impair Leishmania (L.) infantum chagasi and Leishmania (L.) amazonensis Multiplication In Vitro” (PLoS ONE, 2015) come the findings set out here.

Where only a bound is given, the exact number is not on record here.

Regarding `Nc1ncnc2c(C3N[C@H](CO)[C@@H](O)[C@H]3O)c[nH]c12` (stereo partly drawn) [IA], in data set [1], the “effect on cellular ultrastructure of promastigotes” value was “global alterations on their cellular morphology”. Further, the “reduction in the number of intracellular amastigotes” value is 95% in data set [2] (10 μM added daily at 0, 24 and 48 h); 74% in data set [2] (single 10 μM dose at 0 h, compared to untreated controls). The EC50 in data set [2] (Leishmania infantum, Peritoneal macrophage, drugs (0.5–10 μM) added at 0 h, incubation 24 h, linear interpolation, read-out: EC50 (CI 95%)) is 2.39 µM. Further, the “decrease of intracellular amastigote parasite load” value in data set [2] (low micromolar concentrations, single to daily protocol) is on record as 74–95%. The compound also returned a CC50 at 48 h in data set [3] of 900 µM. The Ki in data set [4] worked out at 0.08 µM. The compound further displayed an inhibition at 10 µM in data set [5] (Leishmania infantum, 10 μM, 72 h, compared to RPMI with no addition) of 38%. Further, testing at 50 µM in data set [5] (Leishmania infantum, 50 μM, 72 h, compared to RPMI with no addition) gave an inhibition of 46%. Also, the IC50 in data set [5] (Leishmania infantum, RPMI medium lacking nucleosides or nucleobases, 72 h) was 75 µM; in data set [6] (drugs added at 0, 24 and 48 h, after 48h, read-out: IC50 on promastigote growth, daily addition), 3.6 µM; in data set [6] (drugs added at 0, 24 and 48 h, at 72 and 96 h, read-out: IC50 on promastigote growth, daily addition) it was < 0.05 µM; in data set [6] (single addition at 0 h, evaluated after 48 hours, 26°C, read-out: IC50 (CI 95%) on L. (L.) infantum chagasi promastigotes in vitro growth), 23.9 µM. The “reversal of growth inhibition by adenosine” value in data set [5] (RPMI with 50 μM IA and 50-500 μM adenosine, 72h) was “can be reversed by the presence of exogenous adenosine”. Besides, the inhibition at 500 µM in data set [6] (500 μM, after 96 h of culture, read-out: percent inhibition on L. (L.) infantum chagasi promastigote growth) is 78%.
